Values quoted from earlier work as cited in US20070082912A1, “Pyrrole compounds for the treatment of prostaglandine mediated diseases” (priority 2002, published 2007).

How the values were obtained:
[1] = test system: rat model of chronic constriction injury; conditions: Anesthesia and Analgesia 2001, 93, 1012-7
[2] = test system: rodent model of post-operative pain; conditions: Anesthesia and Analgesia 2001, 92, 233-238

## Cc1cc(Cl)ccc1S(=O)(=O)NC[C@H]1C2CCC(CC2)[C@@H]1/C=C\CCCC(=O)O [ONO-871 1]
[1]
  hyperalgesia and allodynia: reduces hyperalgesia and allodynia
[2]
  mechanical hyperalgesia: inhibits mechanical hyperalgesia
